These results are taken from patent US4309559A, “Sulphonamides useful as pesticides” (FBC Limited, priority 1977, dated 1982).

In test [1] the test system is Mustard (Sinapis alba). Description: Soil incorporation (attaclay/sand dust), growth regulatory or herbicidal effects, mustard. As to conditions: 504 h, soil incorporation 26 ppm, 21 days, 0=no effect, 100=complete kill, read-out: growth regulatory or herbicidal effect score. Type of test: in vivo. The method, boiled down: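 Compounds formulated as attaclay/sand dust, incorporated into John Innes I compost at 26 ppm w/v (≈11.2 kg/ha) or 130 ppm w/v (≈56 kg/ha); seeds sown in treated soil, held 21 days at 22° C, 65-85% RH, 14 h light at 13,000 lux. Visual scoring versus untreated control, 0 (no effect) to 100 (complete kill).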

Test [2] relates to Mustard (Sinapis alba). Nature of the test: Post-emergence foliar spray, herbicidal/growth regulant response, mustard. Type of test: in vivo. As to conditions: 168 h, foliar spray 11.2 kg/ha, 7 days, 0=no effect, 100=complete kill, read-out: herbicidal or growth regulant response index. Put shortly: (§1)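 Foliar spray, 14-day-old seedlings; 11.2 kg/ha in 450 L/ha, 1:1 aq. acetone. Controlled room 22° C., 65-85% RH, 14 h light (13,000 lux). Visual score vs untreated control at 7 d, 0–100 (100 = complete kill).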

For test [3], the system named is Pythium ultimum. Nature of the test: Fungal growth on the surface of soil infected with damping-off disease organism. Type of test: in vivo. The note with it: 6 days, 25° C., 0-8 scale.
For test [4], the system named is Ryegrass (Lolium perenne). Description: Post-emergence foliar spray, herbicidal/growth regulant response, ryegrass. It counts as in vivo. As to conditions: 168 h, foliar spray 11.2 kg/ha, 7 days, 0=no effect, 100=complete kill, read-out: herbicidal or growth regulant response index. The method, boiled down:
as §1

Test [5] deals with Pythium ultimum. Description: Cabbage seedling emergence in soil infected with Pythium ultimum. It counts as in vivo, Pythium ultimum (on cabbage, variety Flower of Spring). The note with it: 6 days, 25° C., 0-8 scale. The method, boiled down: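 Potting compost infested with one-week maize meal/sand Pythium ultimum culture (3 kg per 12 l soil), drenched with compound in Tween 20/water at 1500, 500, 150 or 50 ppm; 15 cabbage seeds sown per carton, 25° C, four replicates. After six days, soil-surface fungal growth and seedling emergence scored 0-8.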

Test [6] concerns Linseed (Linum usitatissimum). Nature of the test: Post-emergence foliar spray, herbicidal/growth regulant response, linseed. Type of test: in vivo. The note with it: 168 h, foliar spray 11.2 kg/ha, 7 days, 0=no effect, 100=complete kill, read-out: herbicidal or growth regulant response index. The method, boiled down:
as §1

On to `CCCS(=O)(=O)N(c1c(C)cccc1C)C(C)C(=O)OCC` (centres unmarked) [Example 24, N-(1-[ethoxycarbonyl]ethyl)-2',6'-dimethyl-1-propanesulphonanilide], for which the pest or weed control at 26 µg/mL in the test on Mustard (Sinapis alba) [1] was determined as 100%. Moreover, the results for the pest or weed control at 11200 g/ha (in the test on Mustard (Sinapis alba) [2]; in test [4]; in test [6]) were 100%, 75% and 90%, respectively. The “Mycelial Control Score” value in the test on Pythium ultimum [3] (30 ppm) and in the test with Pythium ultimum [3] (100 ppm) was 0 (<20% inhibition) each time. In addition, the “Germination Score” value in the test on Pythium ultimum [5] (30 ppm) is listed as 1 (20-34% inhibition); in the test on Pythium ultimum [5] (100 ppm) it was 5 (65-74% inhibition).
